From patent publication US20130136827A1, “Method and Composition for Increasing The Proportion of Dietary Ingredients That Are Resistant To Degradation by Ruminal Microorganisms” (priority 2011, published 2013)

Key:
[1] = test system: microorganisms within the rumen ecosystem; details: Montgomery et al., J Anim Sci. 86(3):640-50; cited from earlier work
[2] = test system: ruminal microbes; test: In situ ruminal incubation of samples in Dacron bags for 24 hours
Description: The in situ procedure utilizes small in situ bags made of a nitrogen-free synthetic polyester fabric (Dacron®; Ankom Technology, Mecedon, N.Y.) that has a 50 μm pore size. The pores are sufficiently small such that when feed materials are placed into the bag the contents are retained. The pore size also is large enough to allow for entry of microorganisms into the bag when placed into the rumen, thus exposing the contents to the degradative actions of ruminal microbes. Disappearance of feed particles from the bag is presumed to be due to microbial fermentative activity whilst the bag and its contents are suspended within the rumen environment. In situ assays provide useful information regarding the susceptibility of feeds to microbial digestion within the rumen.
The test procedure consisted of adding 12 g of sample (as is) to Dacron bags, which then were heat sealed and subsequently placed into the rumen and allowed to incubate for 24 hours. Bags then were removed from the rumen, dried and weighed to determine disappearance of dry matter. Concentrations of protein, total fatty acids, and fatty acid profile were determined for the residue from each sample. Samples were prepared in duplicate within each animal, along with blank bags for correction, and six animals were used. Three cattle were fed a high-concentrate diet and 3 were fed a high-forage, i.e., low concentrate diet.
These values were used to calculate the extent of dry matter and nutrient disappearance during the in situ digestion procedure.

SMILES | dietary ALA available for absorption in the postruminal digestive tract [1] | ruminally degraded / disappearance of dry matter, over Low and High concentrate groups ([2]; 24-hour period of ruminal incubation, text summary of Table VII) | In situ dry matter disappearance (%), Mean ([2]; 24 hours of ruminal incubation, average of Low and High concentrate groups) | In situ dry matter disappearance (%), High Concentrate ([2]; 24 hours of ruminal incubation, cattle on high-concentrate diet) | In situ dry matter disappearance (%), Low Concentrate ([2]; 24 hours of ruminal incubation, cattle on high-forage/low concentrate diet)
CC/C=C\C/C=C\C/C=C\CCCCCCCC(=O)O [ALA, Alpha-linolenic acid] | less than 5% | – | – | – | –
Cl.NCCCC[C@H](N)C(=O)O [Lysine, lysine hydrochloride] | – | ≥ 99.83% | 99.86% | 99.83% | 99.88%
